Test results reported in PMC7083565, “In vitro metabolism, reaction phenotyping, enzyme kinetics, CYP inhibition and induction potential of ataluren” (Pharmacology Research & Perspectives, 2020).

How the values were obtained:
CYP3A4/5 = assay: CYP inhibition in pooled human liver microsomes: CYP3A4/5; type: in vitro ADME
Procedure: The final concentration of each probe substrate was near the experimentally determined Km value for the indicated enzyme. Ataluren or prototypical CYP inhibitors (positive controls) was incubated (n = 3) with probe substrates and HLM in 100 mmol/L phosphate buffer (pH 7.4) in a total volume of approximately 0.25 mL, and the reactions were initiated by the addition of 1 mmol/L NADPH at 37°C. The reactions were carried out using previously established conditions to ensure linearity with respect to protein concentration and incubation time (Table S1). Incubations were stopped with the addition of ice‐cold acetonitrile. Metabolite formation in incubations with test compound and control inhibitors was assessed with LC‐MS/MS methods for each of the reaction products as described in Table S2. […] After 7 minutes incubation at 37°C, the reaction was stopped by the addition of ice‐cold acetonitrile, followed by membrane plate filtration. The filtrates were used for LC‐MS/MS analysis. Enzyme activity remaining at each nonzero ataluren concentration after incubation was normalized against control sample (zero ataluren concentration, enzyme activity = 100%), and the % remaining enzyme activity values were used for IC50 calculation. IC50 values were determined by nonlinear regression with GraphPad Prism 5 using the following four‐parameter sigmoidal‐logistic IC50 equation: Fit=background+range-background/[1+I/IC50^slope]
Where, I is the inhibitor concentration, and background was set to 0 and range to 100, as percent of control values are utilized. K i was determined by nonlinear regression with GraphPad Prism 5 using best fit model.

[1] = Glucuronidation in pooled human lung microsomes; type: in vitro ADME; settings: lung microsomes 1 mg protein/mL, 10 μmol/L
Procedure: Ataluren at 10 μmol/L, was incubated (n = 1) with pooled human intestinal, lung, and kidney microsomes (1 mg protein/mL, preactivated with alamethicin) to evaluate if ataluren‐O‐1β‐acyl glucuronide will be formed in these extrahepatic tissues. Incubation mixtures and procedures were essentially the same as the above. The supernatant fractions were analyzed by LC‐MS/MS to quantify the formation of ataluren‐O‐1β‐acyl glucuronide and the loss of ataluren. Detailed LC‐MS/MS conditions are summarized in LC‐MS/MS Analysis section. […] The ataluren acyl glucuronide formation rate after 60 minutes incubation was calculated using the amount of metabolite formed (pmol) divided by the protein amount in the incubation sample ([…]) and the incubation time (60 minutes).
Quantification of ataluren loss and ataluren‐O‐1β‐acyl glucuronide formation was carried out with an LC‐MS/MS system, which consisted of two Shimadzu LC‐10ADvp pumps, a SPD10‐AVP UV/Vis detector, a Shimadzu SILHTA autosampler, a Shimadzu DGU‐14A degasser, and a Sciex API 4000 QTRAP mass spectrometer equipped with a Turbo Ionspray ionization source that operated in positive ionization mode. […] Ion transitions monitored were at m/z 285 → m/z 123 for ataluren, m/z 461 → m/z 285 for ataluren acyl glucuronide, and m/z 289 → m/z 127 for ataluren‐D4 (internal standard), respectively.

## O=C(O)c1cccc(-c2noc(-c3ccccc3F)n2)c1 [ataluren, Ataluren]
CYP3A4/5; pH 7.4, CYP3A4/5, HLM, estimated, concentrations up to 400 μmol/L, substrate not stated
  IC50: > 400 µM
CYP3A4/5; pH 7.4, probe midazolam (1′-hydroxylation), Midazolam 1′-hydroxylase, pooled HLM, n=3
  IC50: > 400 µM
CYP3A4/5; pH 7.4, probe testosterone (6β-hydroxylation), Testosterone 6β-hydroxylase, pooled HLM, n=3
  IC50: > 400 µM
[1]
  Glucuronidation of ataluren observed: not in lung microsomes
